According to patent US8026218B2, “Bifunctional analgesic compounds for opioid receptor agonists and neurokinin-1 receptor antagonists” (The University of Arizona, priority 2006, dated 2011):
Read-outs that look alike come from different tables or passages of the source. Peptide text beside a SMILES is read from it.

Experiments:
δ opioid receptors (MVD) = target: T1, δ opioid receptors (MVD) (Mus musculus, UniProt P32300); test: Mouse isolated vas deferens (MVD) assay, opioid agonist
T1 construct: from tissue; host or cells: mouse (ICR) isolated vas deferens

[1] = target: T2, rat μ opioid receptors (rMOR) (Rattus norvegicus, UniProt P33535); test: biochemical; type: biochemical
T2 construct: expressed in transfected cells; host or cells: HN9.10 neuroblastoma cell line, pCDNA3, neomycin-selected clones

[2] = target: T3, human δ opioid receptors (hDOR) (Homo sapiens, UniProt P41143); test: [35S]GTP-γ-S binding assay, hDOR; type: biochemical
T3 construct: expressed in transfected cells; host or cells: HN9.10 neuroblastoma cell line, pCDNA3, neomycin-selected clones

[3] = target: T2, rat μ opioid receptors (rMOR); test: Radioligand competition binding, [3H]DAMGO, rMOR membranes
rat NK1 (rNK1) receptor = target: T4, rat NK1 (rNK1) receptor (Rattus norvegicus, UniProt P14600); test: Radioligand competition binding, [3H]substance P, rNK1/CHO membranes; details: for IC50: membranes from transfected CHO cells
T4 construct: expressed in transfected cells; host or cells: CHO (rNK-1/CHO cell line from Dr. James Krause)

[4] = target: T3, human δ opioid receptors (hDOR); test: Radioligand competition binding, [3H]DPDPE, hDOR membranes
[5] = target: T5, human NK1 receptor (hNK1) (Homo sapiens, UniProt P25103); test: Radioligand competition binding, [3H]-Substance P, hNK1
T5 construct: expressed in transfected cells

[6] = target: T6, Substance P receptors (guinea pig NK1) (Cavia porcellus, UniProt P30547); test: Guinea pig isolated ileum (GPI) assay with substance P stimulation in presence of 1 μM naloxone; details: for GPI/LMMP SP Agonist (IC50; nM): Table 39
T6 construct: from tissue; host or cells: guinea pig (Hartley) ileum LMMP, 1 μM naloxone present

μ opioid receptors (GPI) = test: Guinea pig isolated ileum (GPI) assay, opioid agonist; design: GPI/LMMP Opioid(m) Agonist, % inh.: unit of the concentration uncertain;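 note: inhibition of electrically evoked contractions (0.1 Hz, 0.4 msec, supramaximal voltage) in organ baths at 37 °C, contraction height 3 min after each cumulative dose versus the 1 min before dosing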
[7] = Table 39, read-out: GTP binding rMOR Emax
[8] = read-out: GTP binding hDOR Emax
[9] = membranes from transfected HN9.10 cells
[10] = Table 30, read-out: GPI/LMMP Opioid(m) Agonist (IC50; nM)
[11] = Table 39, read-out: GPI/LMMP opioid(mu) agonist (IC50; nM)

T4 sequence (P14600 whole entry): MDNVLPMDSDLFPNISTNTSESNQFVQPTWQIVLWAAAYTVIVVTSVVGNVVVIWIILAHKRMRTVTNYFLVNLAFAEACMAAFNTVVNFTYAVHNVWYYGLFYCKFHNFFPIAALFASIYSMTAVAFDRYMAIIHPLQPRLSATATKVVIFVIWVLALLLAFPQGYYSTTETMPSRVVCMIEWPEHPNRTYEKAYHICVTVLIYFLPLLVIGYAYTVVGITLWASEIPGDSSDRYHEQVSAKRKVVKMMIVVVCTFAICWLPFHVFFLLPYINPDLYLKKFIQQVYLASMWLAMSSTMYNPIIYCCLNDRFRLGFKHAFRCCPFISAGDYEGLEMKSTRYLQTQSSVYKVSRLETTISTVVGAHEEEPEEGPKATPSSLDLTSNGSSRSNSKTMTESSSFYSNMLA
T2 sequence (P33535 whole entry): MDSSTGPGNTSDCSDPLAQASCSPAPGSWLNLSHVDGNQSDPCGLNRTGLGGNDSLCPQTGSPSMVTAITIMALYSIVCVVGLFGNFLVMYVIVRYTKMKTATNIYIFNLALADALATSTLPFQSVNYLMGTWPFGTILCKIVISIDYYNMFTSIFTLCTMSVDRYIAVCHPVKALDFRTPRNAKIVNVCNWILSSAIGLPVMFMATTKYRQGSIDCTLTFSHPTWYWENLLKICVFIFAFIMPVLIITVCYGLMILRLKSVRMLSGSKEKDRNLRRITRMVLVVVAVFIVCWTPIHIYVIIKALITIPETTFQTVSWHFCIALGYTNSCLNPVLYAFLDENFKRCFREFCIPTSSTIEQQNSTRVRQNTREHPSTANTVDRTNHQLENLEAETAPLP
T6 sequence (P30547 whole entry): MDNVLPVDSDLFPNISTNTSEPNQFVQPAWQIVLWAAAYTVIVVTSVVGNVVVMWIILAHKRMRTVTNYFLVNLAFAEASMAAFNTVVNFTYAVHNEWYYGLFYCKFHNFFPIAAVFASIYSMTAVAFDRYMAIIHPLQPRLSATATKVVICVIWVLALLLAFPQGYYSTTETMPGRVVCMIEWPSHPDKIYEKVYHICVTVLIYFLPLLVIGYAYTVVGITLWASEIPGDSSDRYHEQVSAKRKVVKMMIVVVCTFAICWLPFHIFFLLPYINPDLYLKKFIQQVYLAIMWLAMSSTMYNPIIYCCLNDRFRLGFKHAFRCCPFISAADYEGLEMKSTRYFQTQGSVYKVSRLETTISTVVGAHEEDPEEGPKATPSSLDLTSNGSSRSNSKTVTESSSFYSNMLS
T1 sequence (P32300 whole entry): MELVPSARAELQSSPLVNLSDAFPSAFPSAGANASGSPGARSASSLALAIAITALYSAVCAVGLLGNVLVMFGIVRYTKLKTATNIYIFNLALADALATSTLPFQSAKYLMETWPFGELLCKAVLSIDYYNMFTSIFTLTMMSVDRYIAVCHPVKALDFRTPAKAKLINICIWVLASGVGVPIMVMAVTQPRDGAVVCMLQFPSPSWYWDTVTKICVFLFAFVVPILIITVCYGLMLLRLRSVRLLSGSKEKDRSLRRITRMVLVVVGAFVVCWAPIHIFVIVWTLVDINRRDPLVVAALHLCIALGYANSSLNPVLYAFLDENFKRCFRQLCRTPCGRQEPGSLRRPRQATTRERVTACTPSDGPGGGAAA
T3 sequence (P41143 whole entry): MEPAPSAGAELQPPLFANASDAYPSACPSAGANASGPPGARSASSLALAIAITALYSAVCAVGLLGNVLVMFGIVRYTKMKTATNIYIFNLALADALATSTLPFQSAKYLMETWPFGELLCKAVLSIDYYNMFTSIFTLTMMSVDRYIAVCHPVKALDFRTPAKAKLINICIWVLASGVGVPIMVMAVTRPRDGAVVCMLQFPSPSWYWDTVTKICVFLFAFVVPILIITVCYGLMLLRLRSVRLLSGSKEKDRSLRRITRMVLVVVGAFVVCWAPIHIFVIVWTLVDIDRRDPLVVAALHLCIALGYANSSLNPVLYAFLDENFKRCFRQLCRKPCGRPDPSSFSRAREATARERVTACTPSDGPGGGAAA
T5 sequence (P25103 whole entry): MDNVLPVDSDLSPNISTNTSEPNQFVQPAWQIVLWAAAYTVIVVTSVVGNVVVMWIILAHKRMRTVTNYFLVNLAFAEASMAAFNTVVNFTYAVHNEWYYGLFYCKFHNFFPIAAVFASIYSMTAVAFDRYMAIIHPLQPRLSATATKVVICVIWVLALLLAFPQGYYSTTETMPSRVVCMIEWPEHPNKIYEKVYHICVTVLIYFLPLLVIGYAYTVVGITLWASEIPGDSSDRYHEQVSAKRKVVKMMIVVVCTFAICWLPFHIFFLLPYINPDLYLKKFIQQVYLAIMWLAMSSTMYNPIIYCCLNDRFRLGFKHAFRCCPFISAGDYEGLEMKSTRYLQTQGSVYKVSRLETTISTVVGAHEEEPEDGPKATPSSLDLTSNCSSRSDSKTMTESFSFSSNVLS

CC(C)C[C@H](NC(=O)[C@H](Cc1ccccc1)NC(=O)CNC(=O)[C@@H](C)NC(=O)[C@@H](N)Cc1ccc(O)cc1)C(=O)N[C@@H](Cc1c[nH]c2ccccc12)C(=O)OCc1cc(C(F)(F)F)cc(C(F)(F)F)c1 [NP37] (HELM PEPTIDE1{Y.[dA].G.F.L.W.[FC(F)(F)c1cc(CO[*:1])cc(C(F)(F)F)c1]}$$$$V2.0; N-terminus assumed)
IC50 (δ opioid receptors (MVD)): 25.7 nM | EC50 ([1]; Table 32, read-out: GTP rMOR EC50): 14 nM | Emax ([1]; Table 32, read-out: GTP rMOR EMax): 54% | EC50 ([2]; Table 32, read-out: GTP hDOR EC50): 4.8 nM | Emax ([2]; Table 32, read-out: GTP hDOR EMax): 60% | Ki [3]: 23.3 nM | Ki (rat NK1 (rNK1) receptor; Affinity (Ki, nM) rNK1, Table 32): 0.29 nM | Ki [4]: 2.9 nM

CC(C)C[C@H](NC(=O)[C@@H]1CCCN1C(=O)[C@@H](Cc1ccccc1)NC(=O)[C@H](Cc1ccccc1)NC(=O)CNC(=O)[C@@H](C)NC(=O)[C@@H](N)Cc1ccc(O)cc1)C(=O)N[C@@H](Cc1c[nH]c2ccccc12)C(=O)OCc1cc(C(F)(F)F)cc(C(F)(F)F)c1 [TY007, H-Tyr-D-Ala-Gly-Phe-D-Phe-Pro-Leu-Trp-O-3,5-Bzl(CF3)2]
IC50 (δ opioid receptors (MVD); Table 28, read-out: MVD Opioid (d) Agonist (IC50; nM)): 412 nM | IC50 (δ opioid receptors (MVD); Table 39, read-out: MVD opioid(delta) agonist (IC50; nM)): 412 nM | IC50 (δ opioid receptors (MVD); electrically stimulated isolated tissue, read-out: MVD (δ), IC50): 412 ± 106 nM | LogEC50, rMOR, [35S]GTP-γ-S binding [1]: −6.46 ± 0.38 | EC50 ([1]; Table 27, read-out: GTP binding rMOR EC50): 345 nM | Emax ([1]; Table 27, read-out: GTP binding rMOR Emax (%)): 23.6% | EC50 ([1]; Table 39, read-out: GTP binding rMOR EC50): 345 nM | Emax [1, 7]: 23.6% | Emax ([1]; net total bound/basal binding × 100, read-out: Emax, rMOR, [35S]GTP-γ-S binding): 22% | EC50 ([1]; read-out: EC50, rMOR, [35S]GTP-γ-S binding): 345 nM | Ki(μ)/Ki(δ) [2]: 20.5 | LogEC50, hDOR, [35S]GTP-γ-S binding [2]: −7.78 ± 0.36 | Emax ([2]; read-out: Emax, hDOR, [35S]GTP-γ-S binding): 26% | EC50 ([2]; read-out: GTP binding hDOR EC50): 16.7 nM | Emax [2, 8]: 22.9% | Emax ([2]; read-out: GTP binding hDOR Emax (%)): 22.9% | Ki [3]: 410 nM | LogIC50, rMOR, [3H]DAMGO [3, 9]: −6.09 ± 0.15 | Ki ([3]; read-out: Ki, rMOR, [3H]DAMGO): 381 nM | Ki [5]: 1.3 nM | Kb ([6]; Substance P antagonist, GPI, Ke, in the presence of 1 μM naloxone): 69.6 ± 7.1 nM | GPI/LMMP SP Agonist (IC50; nM) ([6]; concentration not given): none | activation at 1 µM ([6]; read-out: Substance P GPI agonist (A50), at 1 μM, contraction relative to initial muscle contraction with KCl): 0% | IC50 (rat NK1 (rNK1) receptor; IC50, rNK1, Substance P radioligand): 66.7 nM | IC50 (rat NK1 (rNK1) receptor; LogIC50, rNK1, Substance P radioligand): 60.3 nM | GPI/LMMP Opioid(m) Agonist, % inh. (μ opioid receptors (GPI); Table 28, at 1 (unit uncertain)): 9% inh. at 1 mM | GPI/LMMP opioid(mu) agonist, % (μ opioid receptors (GPI); Table 39, concentration not given): 9.20% | GPI (μ), effect at single concentration (μ opioid receptors (GPI); at 1 μM): 9% at 1 μM^b | Ki [4]: 110 nM | Ki(μ)/Ki(δ) ([4]; binding, rMOR vs hDOR): 4.1 | LogIC50, hDOR, [3H]DPDPE [4, 9]: −6.70 ± 0.13 | Ki ([4]; read-out: Ki, hDOR, [3H]DPDPE): 93 nM

CSCC[C@H](NC(=O)[C@H](Cc1ccccc1)NC(=O)CNC(=O)[C@@H](C)NC(=O)[C@@H](N)Cc1c(C)cc(O)cc1C)C(=O)N1CCC[C@H]1C(=O)N[C@@H](CC(C)C)C(=O)N[C@@H](Cc1c[nH]c2ccccc12)C(=O)NCc1cc(C(F)(F)F)cc(C(F)(F)F)c1 [TY032]
IC50 (δ opioid receptors (MVD)): 1.82 nM | Emax [1, 7]: 74% | EC50 ([2]; GTP binding hDOR EC50): 1.2 nM | Emax [2, 8]: 24% | Ki [5]: 0.008 nM | GPI/LMMP Substance P Agonist (IC50; nM) ([6]; Table 30): None | GPI/LMMP SP Agonist (IC50; nM) ([6]; at 100 nM): none | IC50 (μ opioid receptors (GPI); [10]): 18.6 nM | IC50 (μ opioid receptors (GPI); [11]): 18.6 nM | Ki [4]: 0.12 nM

CSCC[C@H](NC(=O)[C@H](Cc1ccccc1)NC(=O)CNC(=O)[C@@H](C)NC(=O)[C@@H](N)Cc1c(C)cc(O)cc1C)C(=O)N1CCC[C@H]1C(=O)N[C@@H](CC(C)C)C(=O)N[C@@H](Cc1c[nH]c2ccccc12)C(=O)NCc1ccccc1 [TY034]
IC50 (δ opioid receptors (MVD)): 6.85 nM | Emax [1, 7]: 58% | Emax ([2]; Table 39, read-out: GTP binding hDOR Emax): 21% | Ki [3]: 0.14 nM | Kb ([6]; GPI/LMMP Substance P Antagonist (Ke; nM), Table 30): 36.9 nM | GPI/LMMP Substance P Agonist (IC50; nM) ([6]; Table 30): None | GPI/LMMP SP Agonist (IC50; nM) ([6]; at 100 nM): none | Ki (rat NK1 (rNK1) receptor; Affinity rNK1 (Ki; nM), Table 39): 317 nM | IC50 (μ opioid receptors (GPI); [10]): 11.4 nM | IC50 (μ opioid receptors (GPI); [11]): 11.4 nM | Ki [4]: 0.1 nM
